From patent US20090247559A1 (Exelixis, Inc., priority 2007, published 2009)
Counter-ions that a name gives are not always drawn. Like-named read-outs stand apart in the source and are kept apart here.

Legend:
CDC7 = CDC7 (Homo sapiens, UniProt O00311); assay: CDC7 inhibition, biochemical chemiluminescence assay (Kinase Glo, IC50 determination)
Outline: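 CDC7 enzyme preincubated with compound 10 min at ambient temperature, then ATP mix in Tris Base added; reaction 90 min at 24-27 °C. Remaining ATP quantified by Kinase Glo luminescence to give IC50.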

[1] = molecular target: PIM (PIM-1, PIM-2, and/or PIM-3); assay: PIM-1, PIM-2 and PIM-3 inhibition, biochemical chemiluminescence assays (Kinase Glo, IC50 determination); details: Table 1 activity class; PIM refers to PIM-1, PIM-2, and/or PIM-3; read-out: PIM IC50 (Activity B)
CK2 = CK2 (Homo sapiens, UniProt P68400); assay: CK2 inhibition, biochemical chemiluminescence holoenzyme assay (Kinase Glo, IC50 determination); details: Table 1 activity class; symbol given only if active; read-out: CK2 IC50 (Activity C)
Outline: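 Holoenzyme CK2 assay; compounds pre-incubated with substrate and enzyme, then reacted 150 min at 24-27° C. Remaining ATP measured as luminescence with Kinase Glo, and IC50 derived from the signal.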

[2] = Table 1 activity class, symbol given only if active, read-out: CDC7 IC50 (Activity A)
[3] = compounds in Table 1, read-out: CDC7 IC50 value

Sequence of CDC7 (O00311 whole entry): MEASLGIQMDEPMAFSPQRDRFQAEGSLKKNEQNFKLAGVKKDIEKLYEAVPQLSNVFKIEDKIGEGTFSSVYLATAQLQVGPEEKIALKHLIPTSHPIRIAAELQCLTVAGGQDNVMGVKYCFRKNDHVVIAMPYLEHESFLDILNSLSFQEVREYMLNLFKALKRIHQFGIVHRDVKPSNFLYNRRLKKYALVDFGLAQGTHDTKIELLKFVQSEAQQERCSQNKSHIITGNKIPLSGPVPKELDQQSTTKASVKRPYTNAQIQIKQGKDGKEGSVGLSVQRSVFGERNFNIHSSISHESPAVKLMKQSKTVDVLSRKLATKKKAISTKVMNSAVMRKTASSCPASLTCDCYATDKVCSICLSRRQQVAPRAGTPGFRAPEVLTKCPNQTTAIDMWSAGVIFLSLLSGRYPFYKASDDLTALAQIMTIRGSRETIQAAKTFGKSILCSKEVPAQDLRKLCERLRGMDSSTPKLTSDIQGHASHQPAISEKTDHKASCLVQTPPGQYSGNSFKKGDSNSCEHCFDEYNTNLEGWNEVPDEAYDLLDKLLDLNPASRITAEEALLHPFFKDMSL
Sequence of CDC7 (Q9UBU7 whole entry partner): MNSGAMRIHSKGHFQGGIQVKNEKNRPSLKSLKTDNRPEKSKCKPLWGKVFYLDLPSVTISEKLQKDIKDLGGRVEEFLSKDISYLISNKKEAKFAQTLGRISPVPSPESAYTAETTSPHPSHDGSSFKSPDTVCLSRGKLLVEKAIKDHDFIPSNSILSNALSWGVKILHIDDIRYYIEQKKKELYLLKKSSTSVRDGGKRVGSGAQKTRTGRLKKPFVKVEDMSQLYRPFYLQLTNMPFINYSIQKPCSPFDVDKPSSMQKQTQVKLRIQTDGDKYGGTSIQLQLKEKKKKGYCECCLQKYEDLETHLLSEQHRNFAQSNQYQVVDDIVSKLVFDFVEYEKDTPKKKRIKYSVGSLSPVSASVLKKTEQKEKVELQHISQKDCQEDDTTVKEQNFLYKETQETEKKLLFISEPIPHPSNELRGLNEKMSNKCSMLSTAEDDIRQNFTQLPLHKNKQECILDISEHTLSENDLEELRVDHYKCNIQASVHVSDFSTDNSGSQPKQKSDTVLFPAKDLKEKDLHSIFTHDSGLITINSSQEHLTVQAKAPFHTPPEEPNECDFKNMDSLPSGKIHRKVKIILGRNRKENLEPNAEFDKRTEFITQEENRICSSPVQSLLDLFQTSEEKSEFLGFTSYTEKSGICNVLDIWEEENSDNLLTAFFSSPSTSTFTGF
Sequence of CK2 (P68400 whole entry): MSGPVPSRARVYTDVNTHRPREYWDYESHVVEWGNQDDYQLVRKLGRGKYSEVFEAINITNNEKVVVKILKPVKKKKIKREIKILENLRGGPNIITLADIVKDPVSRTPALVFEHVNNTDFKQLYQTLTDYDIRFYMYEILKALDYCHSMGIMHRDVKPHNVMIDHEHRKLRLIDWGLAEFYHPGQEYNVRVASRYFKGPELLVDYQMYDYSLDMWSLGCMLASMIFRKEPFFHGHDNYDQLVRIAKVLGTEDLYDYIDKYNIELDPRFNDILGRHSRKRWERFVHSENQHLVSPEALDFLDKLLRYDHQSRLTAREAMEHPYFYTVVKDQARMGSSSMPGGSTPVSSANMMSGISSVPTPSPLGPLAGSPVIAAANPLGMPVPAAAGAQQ
Sequence of CK2 (P67870 whole entry partner): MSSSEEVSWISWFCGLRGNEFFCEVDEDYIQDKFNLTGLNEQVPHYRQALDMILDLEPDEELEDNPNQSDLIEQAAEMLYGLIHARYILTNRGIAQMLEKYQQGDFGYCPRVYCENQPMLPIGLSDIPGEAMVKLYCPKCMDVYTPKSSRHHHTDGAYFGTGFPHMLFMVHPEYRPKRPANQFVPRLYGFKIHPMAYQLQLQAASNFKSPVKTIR

Row | Compound | IC50 (CDC7; [2]) | IC50 [1] | IC50 (CK2) | IC50 (CDC7; [3])
1 | O=C(Nc1ccc(-c2nc3c(oc4ccc(Br)cc43)c(=O)[nH]2)c(Cl)c1)c1cnccn1 [Compound 323, N-[4-(8-bromo-4-oxo-3,4-dihydro[1]benzofuro[3,2-d]pyrimidin-2-yl)-3-chlorophenyl]pyrazine-2-carboxamide] | < 10 µM | < 10 µM | < 10 µM | –
2 | Cn1ccc(C(=O)Nc2ccc(-c3nc4c(oc5ccc(Br)cc54)c(=O)[nH]3)c(Cl)c2)n1 [Compound 391] | < 10 µM | < 10 µM | < 10 µM | –
3 | O=c1[nH]c(CNC2CCC2)nc2c1oc1ccc(Br)cc12 [Compound 252, 8-bromo-2-[(cyclobutylamino)methyl][1]benzofuro[3,2-d]pyrimidin-4(3H)-one] | < 10 µM | < 10 µM | < 10 µM | < 0.1 µM
4 | O=c1[nH]c([C@@H]2CCCN2)nc2c1oc1ccccc12 [Compound 506, 2-[(2S)-pyrrolidin-2-yl][1]benzofuro[3,2-d]pyrimidin-4(3H)-one] | < 10 µM | < 10 µM | < 10 µM | –
5 | O=c1c2oc3ccc(Br)cc3c2nc2n1CN1CCC[C@@H]21 [Compound 453, (13bS)-11-bromo-1,2,3,13b-tetrahydro-7H-[1]benzofuro[3,2-d]pyrrolo[1′,2′:3,4]imidazo[1,5-a]pyrimidin-7-one] | < 10 µM | < 10 µM | < 10 µM | < 0.1 µM
6 | O=c1[nH]c(CN2CC[C@H](CO)C2)nc2c1oc1ccc(Br)cc12 [Compound 498, 8-bromo-2-{[(3S)-3-(hydroxymethyl)pyrrolidin-1-yl]methyl}[1]benzofuro[3,2-d]pyrimidin-4(3H)-one] | < 10 µM | < 10 µM | < 10 µM | < 0.1 µM
7 | O=c1[nH]c(-c2ccc(NCCC3CCNCC3)cc2Cl)nc2c1oc1ccc(Br)cc12 [Compound 197, 8-bromo-2-{2-chloro-4-[(2-piperidin-4-ylethyl)amino]phenyl}[1]benzofuro[3,2-d]pyrimidin-4(3H)-one] | < 10 µM | < 10 µM | < 10 µM | –
8 | O=C(O)C1(O)CCN(Cc2nc3c(oc4ccc(Br)cc43)c(=O)[nH]2)C1 (stereo not shown) [Compound 368, 1-[(8-bromo-4-oxo-3,4-dihydro[1]benzofuro[3,2-d]pyrimidin-2-yl)methyl]-3-hydroxypyrrolidine-3-carboxylic acid] | < 10 µM | < 10 µM | < 10 µM | < 0.1 µM
9 | CC(=O)N[C@@H]1CCN(Cc2nc3c(oc4ccc(Br)cc43)c(=O)[nH]2)C1 [Compound 364, N-{(3R)-1-[(8-bromo-4-oxo-3,4-dihydro[1]benzofuro[3,2-d]pyrimidin-2-yl)methyl]pyrrolidin-3-yl}acetamide] | < 10 µM | < 10 µM | < 10 µM | < 0.1 µM
10 | O=C(Nc1ccc(-c2nc3c(oc4ccc(Br)cc43)c(=O)[nH]2)c(Cl)c1)c1ccnc(Cl)c1 [Compound 276, N-[4-(8-bromo-4-oxo-3,4-dihydro[1]benzofuro[3,2-d]pyrimidin-2-yl)-3-chlorophenyl]-2-chloropyridine-4-carboxamide] | < 10 µM | < 10 µM | < 10 µM | –
11 | O=c1[nH]c(-c2ccc(CNC3CCCCC3)cc2Cl)nc2c1oc1ccc(Br)cc12 [Compound 427, 8-bromo-2-{2-chloro-4-[(cyclohexylamino)methyl]phenyl}[1]benzofuro[3,2-d]pyrimidin-4(3H)-one] | < 10 µM | < 10 µM | < 10 µM | –
12 | O=c1[nH]c(-c2ccc(NCC3CCNC3)cc2Cl)nc2c1oc1ccc(Br)cc12 (stereo not shown) [Compound 154, 8-bromo-2-{2-chloro-4-[(pyrrolidin-3-ylmethyl)amino]phenyl}[1]benzofuro[3,2-d]pyrimidin-4(3H)-one] | < 10 µM | < 10 µM | < 10 µM | –
13 | CN1CCCN(Cc2nc3c(oc4ccc(Br)cc43)c(=O)[nH]2)CC1 [Compound 426, 8-bromo-2-[(4-methyl-1,4-diazepan-1-yl)methyl][1]benzofuro[3,2-d]pyrimidin-4(3H)-one] | < 10 µM | < 10 µM | < 10 µM | < 0.1 µM
14 | O=C(O)C1CCN(Cc2nc3c(oc4ccc(Br)cc43)c(=O)[nH]2)C1 (stereo not shown) [Compound 103, 1-[(8-bromo-4-oxo-3,4-dihydro[1]benzofuro[3,2-d]pyrimidin-2-yl)methyl]pyrrolidine-3-carboxylic acid] | < 10 µM | < 10 µM | < 10 µM | < 0.1 µM
15 | CN(C)CCCC(=O)Nc1ccc(-c2nc3c(oc4ccc(Br)cc43)c(=O)[nH]2)c(Cl)c1 [Compound 160, N-[4-(8-bromo-4-oxo-3,4-dihydro[1]benzofuro[3,2-d]pyrimidin-2-yl)-3-chlorophenyl]-4-(dimethylamino)butanamide] | < 10 µM | < 10 µM | < 10 µM | –
16 | CC(C)NCc1nc2c(oc3ccc(Br)cc32)c(=O)[nH]1 [Compound 496, 8-bromo-2-{[(1-methylethyl)amino]methyl}[1]benzofuro[3,2-d]pyrimidin-4(3H)-one] | < 10 µM | < 10 µM | < 10 µM | < 0.1 µM
17 | CNCc1ccc(-c2nc3c(oc4ccc(Br)cc43)c(=O)[nH]2)c(Cl)c1 [Compound 422, 8-bromo-2-{2-chloro-4-[(methylamino)methyl]phenyl}[1]benzofuro[3,2-d]pyrimidin-4(3H)-one] | < 10 µM | < 10 µM | < 10 µM | –
18 | O=c1[nH]c(CN2CCNCC2)nc2c1oc1ccc(Br)cc12 [Compound 141, 8-bromo-2-(piperazin-1-ylmethyl)[1]benzofuro[3,2-d]pyrimidin-4(3H)-one] | < 10 µM | < 10 µM | < 10 µM | –
19 | CC(C)[C@H](N)c1nc2c(oc3ccc(Br)cc32)c(=O)[nH]1 [Compound 540, 2-[(1S)-1-amino-2-methylpropyl]-8-bromo[1]benzofuro[3,2-d]pyrimidin-4(3H)-one] | < 10 µM | < 10 µM | < 10 µM | < 0.1 µM
20 | COc1ccc2oc3c(=O)[nH]c(-c4ccc(NCC5CCNCC5)cc4Cl)nc3c2c1 [Compound 138, 2-{2-chloro-4-[(piperidin-4-ylmethyl)amino]phenyl}-8-(methyloxy)[1]benzofuro[3,2-d]pyrimidin-4(3H)-one] | < 10 µM | < 10 µM | < 10 µM | –
21 | O=C(O)c1ccc(C(=O)Nc2ccc(-c3nc4c(oc5ccc(Br)cc54)c(=O)[nH]3)c(Cl)c2)nc1 [Compound 347, 6-({[4-(8-bromo-4-oxo-3,4-dihydro[1]benzofuro[3,2-d]pyrimidin-2-yl)-3-chlorophenyl]amino}carbonyl)pyridine-3-carboxylic acid] | < 10 µM | < 10 µM | < 10 µM | –
22 | NCCNC(=O)c1ccc(C(=O)Nc2ccc(-c3nc4c(oc5ccc(Br)cc54)c(=O)[nH]3)c(Cl)c2)nc1 [Compound 394, ′N′5′-(2-aminoethyl)-N′2′-[4-(8-bromo-4-oxo-3,4-dihydro[1]benzofuro[3,2-d]pyrimidin-2-yl)-3-chlorophenyl]pyridine-2,5-dicarboxamide] | < 10 µM | < 10 µM | < 10 µM | –
23 | CC1(O)CCN(Cc2nc3c(oc4ccc(Br)cc43)c(=O)[nH]2)C1 (stereo not shown) [Compound 346, 8-bromo-2-[(3-hydroxy-3-methylpyrrolidin-1-yl)methyl][1]benzofuro[3,2-d]pyrimidin-4(3H)-one] | < 10 µM | < 10 µM | < 10 µM | < 0.1 µM
24 | O=c1[nH]c([C@@H]2CCCN2)nc2c1oc1ccc(Cl)cc12 [Compound 507, 8-Chloro-2-[(2S)-pyrrolidin-2-yl][1]benzofuro[3,2-d]pyrimidin-4(3H)-one Hydrochloride] | < 10 µM | < 10 µM | < 10 µM | < 0.1 µM
25 | NC1CCCC(c2nc3c(oc4ccc(Br)cc43)c(=O)[nH]2)C1 (stereo not shown) [Compound 380, 2-(3-aminocyclohexyl)-8-bromo[1]benzofuro[3,2-d]pyrimidin-4(3H)-one] | < 10 µM | < 10 µM | < 10 µM | < 0.1 µM
26 | O=c1[nH]c(CN2CCC(O)CC2)nc2c1oc1ccc(Br)cc12 [Compound 242, 8-bromo-2-[(4-hydroxypiperidin-1-yl)methyl][1]benzofuro[3,2-d]pyrimidin-4(3H)-one] | < 10 µM | < 10 µM | < 10 µM | < 0.1 µM
27 | CN1[C@@H]2CC[C@H]1CN(Cc1nc3c(oc4ccc(Br)cc43)c(=O)[nH]1)CC2 [Compound 425, 8-bromo-2-{[(1S,6R)-9-methyl-3,9-diazabicyclo[4.2.1]non-3-yl]methyl}[1]benzofuro[3,2-d]pyrimidin-4(3H)-one] | < 10 µM | < 10 µM | < 10 µM | –
28 | NCc1cccc(-c2nc3c(oc4ccc(Br)cc43)c(=O)[nH]2)c1 [Compound 302, 2-[3-(Aminomethyl)phenyl]-8-bromo[1]benzofuro[3,2-d]pyrimidin-4(3H)-one] | < 10 µM | < 10 µM | < 10 µM | –
29 | O=c1[nH]c(CN2CCC(NCC3CCNCC3)C2)nc2c1oc1ccc(Br)cc12 (stereo not shown) [Compound 110, 8-bromo-2-({3-[(piperidin-4-ylmethyl)amino]pyrrolidin-1-yl}methyl)[1]benzofuro[3,2-d]pyrimidin-4(3H)-one] | < 10 µM | < 10 µM | < 10 µM | –
